Assay results as given in ChEMBL document CHEMBL1133053, “(S)-Thiirancarboxylic acid as a reactive building block for a new class of cysteine protease inhibitors” (Bioorg Med Chem Lett, 2000).

Tests used:
[1] = target: T1, Papain (Carica papaya, UniProt P00784); assay: The compound was evaluated for inhibition of papain.
T1 sequence (P00784 whole entry): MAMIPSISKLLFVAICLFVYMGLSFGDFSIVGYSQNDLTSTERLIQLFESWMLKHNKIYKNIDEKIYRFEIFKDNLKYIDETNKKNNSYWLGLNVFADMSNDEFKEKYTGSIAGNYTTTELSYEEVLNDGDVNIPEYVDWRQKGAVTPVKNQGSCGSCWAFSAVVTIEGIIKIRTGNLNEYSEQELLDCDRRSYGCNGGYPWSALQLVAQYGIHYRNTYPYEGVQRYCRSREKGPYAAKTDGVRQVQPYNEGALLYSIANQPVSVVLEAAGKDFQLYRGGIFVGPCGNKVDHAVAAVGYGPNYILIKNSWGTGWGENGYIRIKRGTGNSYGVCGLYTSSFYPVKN

[2] = target: T2, Papain (Carica papaya) (UniProt P00784); assay: The first order rate constant of inactivation was reported
T2 sequence (whole entry): T1 sequence (P00784 whole entry)

[3] = target: T2, Papain (Carica papaya); assay: The second order rate constant of inactivation was reported
[4] = target: T2, Papain (Carica papaya); assay: The second order rate constant of inactivation was reported at pH 4

Structure (SMILES) | IC50 [1] | K2 [3] | further results
CCOC(=O)C1OC1C(=O)OCC (stereo unspecified) | 207 nM | – | –
COC(=O)[C@H]1CS1 | 200 nM | – | K1 [2]: 0.2 µM
CCOC(=O)C1OC1C(=O)O (stereo unspecified) | 10.5 nM | – | –
O=C(O)[C@H]1CS1 | – | 222 M⁻¹ min⁻¹ | –
CCOC(=O)[C@H]1CS1 | 570 nM | – | K1 [2]: 0.57 µM
CCOC(=O)[C@@H]1N[C@H]1C(=O)OCC | – | 12 M⁻¹ min⁻¹ | –
CCOC(=O)[C@H]1N[C@@H]1C(=O)OCC | – | 11 M⁻¹ min⁻¹ | K2 [4]: 61 M⁻¹ min⁻¹
CCOC(=O)[C@H]1O[C@@H]1C(=O)OCC | – | 104 M⁻¹ min⁻¹ | –
CCOC(=O)[C@@H]1O[C@H]1C(=O)OCC | – | 101 M⁻¹ min⁻¹ | –
CCOC(=O)[C@H]1N[C@@H]1C(=O)O | – | 4690 M⁻¹ min⁻¹ | K2 [4]: 24800 M⁻¹ min⁻¹
O=C(O)[C@@H]1CN1 | – | 1020 M⁻¹ min⁻¹ | –
CCOC(=O)[C@@H]1N[C@H]1C(=O)O | – | 3520 M⁻¹ min⁻¹ | –
